Test results taken from the supplement of paper PMC10307832.

How the values were obtained:
Assay in all cases: relative viability (nuclei count vs DMSO), 5 days (fraction); higher = more cells survive
SW 1573 = test system: SW 1573
Summary of the method: (§1)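 Lung cancer cell lines, seeded in 1536-well plates, were treated the following day by pin tool with a single drug or with five library-drug doses (not always all listed) in √10 steps on top of a fixed anchor-drug dose. Cells were fixed and nuclei stained in one step after 5 days, and nuclei were counted. Relative viability is the nuclei count for treated wells divided by that for vehicle wells, reported as medians of duplicate plates.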

LK-2 = test system: LK-2
Summary of the method: as §1

NCI-H23 = test system: NCI-H23
Summary of the method: as §1

NCI-H2085 = test system: NCI-H2085
Summary of the method: as §1

SW 900 = test system: SW 900
Summary of the method: as §1

HCC-78 = test system: HCC-78
Summary of the method: as §1

LXF-289 = test system: LXF-289
Summary of the method: as §1

NCI-H2126 = test system: NCI-H2126
Summary of the method: as §1

EMC-BAC-2 = test system: EMC-BAC-2
Summary of the method: as §1

RERF-LC-KJ = test system: RERF-LC-KJ
Summary of the method: as §1

NCI-H3122 = test system: NCI-H3122
Summary of the method: as §1

LOU-NH91 = test system: LOU-NH91
Summary of the method: as §1

SK-LU-1 = test system: SK-LU-1
Summary of the method: as §1

LCLC-103H = test system: LCLC-103H
Summary of the method: as §1

EPLC-272H = test system: EPLC-272H
Summary of the method: as §1

NCI-H2405 = test system: NCI-H2405
Summary of the method: as §1

NCI-H322M = test system: NCI-H322M
Summary of the method: as §1

HCC-827 = test system: HCC-827
Summary of the method: as §1

NCI-H1563 = test system: NCI-H1563
Summary of the method: as §1

NCI-H1975 = test system: NCI-H1975
Summary of the method: as §1

ChaGo-K-1 = test system: ChaGo-K-1
Summary of the method: as §1

LU99A = test system: LU99A
Summary of the method: as §1

NCI-H1666 = test system: NCI-H1666
Summary of the method: as §1

## CC1(C)CCC(c2ccc(Cl)cc2)=C(CN2CCN(c3ccc(C(=O)NS(=O)(=O)c4ccc(N[C@H](CCN5CCOCC5)CSc5ccccc5)c(S(=O)(=O)C(F)(F)F)c4)cc3)CC2)C1 [Navitoclax] + Cc1nc(Nc2ncc(C(=O)Nc3c(C)cccc3Cl)s2)cc(N2CCN(CCO)CC2)n1 [Dasatinib] (partner 0.075 µM)
SW 1573; first compound 0.005 µM
  relative viability: 0.522
SW 1573; first compound 0.01581 µM
  relative viability: 0.699
SW 1573; first compound 0.05 µM
  relative viability: 0.637
SW 1573; first compound 0.1581 µM
  relative viability: 0.482
SW 1573; first compound 0.5 µM
  relative viability: 0.459
LK-2; first compound 0.005 µM
  relative viability: 0.319
LK-2; first compound 0.01581 µM
  relative viability: 0.368
LK-2; first compound 0.05 µM
  relative viability: 0.309
LK-2; first compound 0.1581 µM
  relative viability: 0.202
LK-2; first compound 0.5 µM
  relative viability: 0.37
NCI-H23; first compound 0.005 µM
  relative viability: 0.841
NCI-H23; first compound 0.01581 µM
  relative viability: 0.79
NCI-H23; first compound 0.05 µM
  relative viability: 0.627
NCI-H23; first compound 0.1581 µM
  relative viability: 0.705
NCI-H23; first compound 0.5 µM
  relative viability: 0.779
NCI-H2085; first compound 0.005 µM
  relative viability: 0.234
NCI-H2085; first compound 0.01581 µM
  relative viability: 0.234
NCI-H2085; first compound 0.05 µM
  relative viability: 0.199
NCI-H2085; first compound 0.1581 µM
  relative viability: 0.228
NCI-H2085; first compound 0.5 µM
  relative viability: 0.315
SW 900; first compound 0.005 µM
  relative viability: 0.504
SW 900; first compound 0.01581 µM
  relative viability: 0.537
SW 900; first compound 0.05 µM
  relative viability: 0.475
SW 900; first compound 0.1581 µM
  relative viability: 0.8
SW 900; first compound 0.5 µM
  relative viability: 0.42
HCC-78; first compound 0.005 µM
  relative viability: 0.405
HCC-78; first compound 0.01581 µM
  relative viability: 0.351
HCC-78; first compound 0.1581 µM
  relative viability: 0.403
HCC-78; first compound 0.5 µM
  relative viability: 0.381
LXF-289; first compound 0.005 µM
  relative viability: 0.239
LXF-289; first compound 0.01581 µM
  relative viability: 0.308
LXF-289; first compound 0.05 µM
  relative viability: 0.193
LXF-289; first compound 0.1581 µM
  relative viability: 0.256
LXF-289; first compound 0.5 µM
  relative viability: 0.201
NCI-H2126; first compound 0.005 µM
  relative viability: 0.601
NCI-H2126; first compound 0.01581 µM
  relative viability: 0.709
NCI-H2126; first compound 0.05 µM
  relative viability: 0.644
NCI-H2126; first compound 0.1581 µM
  relative viability: 0.509
NCI-H2126; first compound 0.5 µM
  relative viability: 0.569
EMC-BAC-2; first compound 0.005 µM
  relative viability: 0.29
EMC-BAC-2; first compound 0.01581 µM
  relative viability: 0.354
EMC-BAC-2; first compound 0.05 µM
  relative viability: 0.312
EMC-BAC-2; first compound 0.1581 µM
  relative viability: 0.267
EMC-BAC-2; first compound 0.5 µM
  relative viability: 0.288
RERF-LC-KJ; first compound 0.005 µM
  relative viability: 0.787
RERF-LC-KJ; first compound 0.01581 µM
  relative viability: 0.757
RERF-LC-KJ; first compound 0.05 µM
  relative viability: 0.817
RERF-LC-KJ; first compound 0.1581 µM
  relative viability: 0.823
RERF-LC-KJ; first compound 0.5 µM
  relative viability: 0.918
NCI-H3122; first compound 0.005 µM
  relative viability: 0.72
NCI-H3122; first compound 0.01581 µM
  relative viability: 0.838
NCI-H3122; first compound 0.05 µM
  relative viability: 0.904
NCI-H3122; first compound 0.1581 µM
  relative viability: 0.821
NCI-H3122; first compound 0.5 µM
  relative viability: 0.682
LOU-NH91; first compound 0.005 µM
  relative viability: 0.522
LOU-NH91; first compound 0.01581 µM
  relative viability: 0.566
LOU-NH91; first compound 0.05 µM
  relative viability: 0.454
LOU-NH91; first compound 0.1581 µM
  relative viability: 0.5
LOU-NH91; first compound 0.5 µM
  relative viability: 0.377
SK-LU-1; first compound 0.005 µM
  relative viability: 0.182
SK-LU-1; first compound 0.01581 µM
  relative viability: 0.169
SK-LU-1; first compound 0.05 µM
  relative viability: 0.193
SK-LU-1; first compound 0.1581 µM
  relative viability: 0.203
SK-LU-1; first compound 0.5 µM
  relative viability: 0.0932
LCLC-103H; first compound 0.005 µM
  relative viability: 0.468
LCLC-103H; first compound 0.01581 µM
  relative viability: 0.496
LCLC-103H; first compound 0.05 µM
  relative viability: 0.31
LCLC-103H; first compound 0.1581 µM
  relative viability: 0.539
LCLC-103H; first compound 0.5 µM
  relative viability: 0.474
EPLC-272H; first compound 0.005 µM
  relative viability: 0.372
EPLC-272H; first compound 0.05 µM
  relative viability: 0.359
EPLC-272H; first compound 0.1581 µM
  relative viability: 0.361
EPLC-272H; first compound 0.5 µM
  relative viability: 0.345
NCI-H2405; first compound 0.005 µM
  relative viability: 0.189
NCI-H2405; first compound 0.01581 µM
  relative viability: 0.209
NCI-H2405; first compound 0.05 µM
  relative viability: 0.146
NCI-H2405; first compound 0.1581 µM
  relative viability: 0.196
NCI-H2405; first compound 0.5 µM
  relative viability: 0.132
NCI-H322M; first compound 0.005 µM
  relative viability: 0.263
NCI-H322M; first compound 0.01581 µM
  relative viability: 0.24
NCI-H322M; first compound 0.05 µM
  relative viability: 0.252
NCI-H322M; first compound 0.1581 µM
  relative viability: 0.271
NCI-H322M; first compound 0.5 µM
  relative viability: 0.324
HCC-827; first compound 0.005 µM
  relative viability: 0.388
HCC-827; first compound 0.01581 µM
  relative viability: 0.387
HCC-827; first compound 0.05 µM
  relative viability: 0.297
HCC-827; first compound 0.1581 µM
  relative viability: 0.271
HCC-827; first compound 0.5 µM
  relative viability: 0.359
NCI-H1563; first compound 0.005 µM
  relative viability: 0.464
NCI-H1563; first compound 0.01581 µM
  relative viability: 0.458
NCI-H1563; first compound 0.05 µM
  relative viability: 0.46
NCI-H1563; first compound 0.1581 µM
  relative viability: 0.434
NCI-H1563; first compound 0.5 µM
  relative viability: 0.474
NCI-H1975; first compound 0.005 µM
  relative viability: 0.346
NCI-H1975; first compound 0.01581 µM
  relative viability: 0.36
NCI-H1975; first compound 0.05 µM
  relative viability: 0.415
NCI-H1975; first compound 0.1581 µM
  relative viability: 0.337
NCI-H1975; first compound 0.5 µM
  relative viability: 0.323
ChaGo-K-1; first compound 0.005 µM
  relative viability: 0.479
ChaGo-K-1; first compound 0.01581 µM
  relative viability: 0.627
ChaGo-K-1; first compound 0.05 µM
  relative viability: 0.322
ChaGo-K-1; first compound 0.1581 µM
  relative viability: 0.639
ChaGo-K-1; first compound 0.5 µM
  relative viability: 0.666
LU99A; first compound 0.005 µM
  relative viability: 0.542
LU99A; first compound 0.01581 µM
  relative viability: 0.879
LU99A; first compound 0.05 µM
  relative viability: 0.418
LU99A; first compound 0.1581 µM
  relative viability: 0.618
LU99A; first compound 0.5 µM
  relative viability: 0.821
NCI-H1666; first compound 0.005 µM
  relative viability: 0.647
NCI-H1666; first compound 0.01581 µM
  relative viability: 0.853
NCI-H1666; first compound 0.05 µM
  relative viability: 0.755
NCI-H1666; first compound 0.1581 µM
  relative viability: 0.833
NCI-H1666; first compound 0.5 µM
  relative viability: 0.766
